Article PMC6738096 (British Journal of Cancer, 2019)
Entries after “also recorded” stand apart in the source; their conditions may differ.

Test: Phase 1 dose-escalation trial: safety and tolerability (TEAEs, SAEs, DLT, MTD, RP2D)
Settings: for Patients with any AE leading to death: none deemed related to treatment
[1] = safety population, regardless of causality

Description: Endpoints included the incidence of DLTs (defined in the ‘Safety' section) in the first 28-day treatment cycle (cycle 1), the frequency and severity of adverse events (AEs) and serious AEs (SAEs) and changes in laboratory values, vital signs, physical examination findings and Eastern Cooperative Oncology Group (ECOG) performance status (PS).
The starting dose was 30 mg, which was determined by review of nonclinical toxicokinetic assessments. A treatment cycle comprised 28 days in the absence of disease progression or unacceptable toxicity. Patients received starting doses ranging from 30 mg once every 24 hours (Q24h) to 480 mg Q24h, and escalation proceeded based on a 3 + 3 design.
The subsequent cohort started at a reduced dosing regimen. Additional dosing schedules were once every 12 hours (Q12h) at 30 and 60 mg and once every 8 hours (Q8h) at 20 and 40 mg.
Toxicities were graded and recorded according to NCI CTCAE version 4.03. Patients were assessed for DLTs during the first 28-day cycle. A DLT was defined as any grade ≥ 3 nonhaematologic toxicity, according to NCI CTCAE version 4.03.

## CC(C)NC(=O)[C@H]1CC[C@@H](n2c(NC(=O)c3ccc(F)cc3)nc3ccc(CN4CCC(C(C)(C)O)CC4)cc32)CC1 [TSR-011]
40 mg Q8h (n = 31)
  SAE: Bone pain: 0 n (%)
  SAE: Deep-vein thrombosis: 0 n (%)
  SAE: Dehydration: 0 n (%)
  SAE: Disease progression: 2 (6.5) n (%)
  SAE: Dyspnoea: 0 n (%)
  SAE: Gastric haemorrhage: 0 n (%)
  SAE: Gastric ulcer helicobacter: 1 (3.2) n (%)
  SAE: Infection: 1 (3.2) n (%)
  SAE: Lower respiratory tract infection: 1 (3.2) n (%)
  SAE: Mastoiditis: 0 n (%)
  SAE: Mental impairment: 0 n (%)
  SAE: Metastases to the central nervous system: 1 (3.2) n (%)
  SAE: Pericardial effusion: 1 (3.2) n (%)
  SAE: Pleural effusion: 1 (3.2) n (%)
  SAE: Pneumonia: 1 (3.2) n (%)
  SAE: Portal vein thrombosis: 0 n (%)
  SAE: Seizure: 1 (3.2) n (%)
  SAE: Subarachnoid haemorrhage: 1 (3.2) n (%)
  Total number of TEAEs: 167
  Total number of treatment-emergent SAEs: 16
  Patients with any AE leading to death: 2 (6.5) Number (%)
40 mg TID
  Grade ≥ 3 pneumonitis or hypoxia: no grade ≥ 3 pneumonitis or hypoxia was observed
320 mg Q24h cohort, an additional patient determined retrospectively
  Grade 3 ECG QTc prolongation within the DLT period: One patient
30-, 60-, 120- and 240-mg IR Q24h cohorts
  DLTs: none of the patients experienced DLTs
320- and 480-mg Q24h doses
  Maximum tolerated dose (MTD): exceeded the maximum tolerated dose; also recorded: exceeded the MTD
480-mg Q24h cohort
  Grade 3 QTc prolongation: two of four patients
All patients (N = 72)
  Drug-related TEAE: Abnormal dreams: 2 (2.8) n (%)
  Drug-related TEAE: Anaemia: 2 (2.8) n (%)
  Drug-related TEAE: Asthenia: 2 (2.8) n (%)
  Drug-related TEAE: Constipation: 5 (6.9) n (%)
  Drug-related TEAE: Decreased appetite: 4 (5.6) n (%)
  Drug-related TEAE: Diarrhoea: 3 (4.2) n (%)
  Drug-related TEAE: Dysaesthesia: 2 (2.8) n (%)
  Drug-related TEAE: Dysgeusia: 3 (4.2) n (%)
  Drug-related TEAE: Electrocardiogram QTc prolonged: 12 (16.7) n (%)
  Drug-related TEAE: Fatigue: 4 (5.6) n (%)
  Drug-related TEAE: Headache: 3 (4.2) n (%)
  Drug-related TEAE: Hot flush: 2 (2.8) n (%)
  Drug-related TEAE: Increased transaminases: 2 (2.8) n (%)
  Drug-related TEAE: Insomnia: 2 (2.8) n (%)
  Drug-related TEAE: Myalgia: 2 (2.8) n (%)
  Drug-related TEAE: Nausea: 3 (4.2) n (%)
  Drug-related TEAE: Peripheral oedema: 3 (4.2) n (%)
  Drug-related TEAE: Rash: 2 (2.8) n (%)
  Drug-related TEAE: Vomiting: 4 (5.6) n (%)
  Grade 3 TEAE: Anaemia: 5 (6.9) n (%)
  Grade 3 TEAE: Ascites: 2 (2.8) n (%)
  Grade 3 TEAE: Asthenia: 3 (4.2) n (%)
  Grade 3 TEAE: Dyspnoea: 3 (4.2) n (%)
  Grade 3 TEAE: Electrocardiogram QTc prolonged: 4 (5.6) n (%)
  Grade 3 TEAE: Fatigue: 2 (2.8) n (%)
  Grade 3 TEAE: Metastases to the central nervous system: 2 (2.8) n (%)
  Patients with any TEAE: 70 (97.2) Number (%)
  Patients with any TEAE leading to treatment discontinuation: 11 (15.3) Number (%)
  Patients with any serious TEAE: 28 (38.9) Number (%)
  Patients with any study drug-related TEAE: 40 (55.6) Number (%)
  Patients with ≥ 1 treatment-emergent SAE: 28 (38.9) n (%)
  SAE class: Blood and lymphatic system disorders: 2 (2.8) n (%)
  SAE class: Cardiac disorders: 1 (1.4) n (%)
  SAE class: Gastrointestinal disorders: 5 (6.9) n (%)
  SAE class: General disorders and administration-site conditions: 7 (9.7) n (%)
  SAE class: Hepatobiliary disorders: 1 (1.4) n (%)
  SAE class: Infections and infestations: 5 (6.9) n (%)
  SAE class: Metabolism and nutrition disorders: 1 (1.4) n (%)
  SAE class: Musculoskeletal and connective tissue disorders: 1 (1.4) n (%)
  SAE class: Neoplasms benign, malignant and unspecified (including cysts and polyps): 3 (4.2) n (%)
  SAE class: Nervous system disorders: 8 (11.1) n (%)
  SAE class: Respiratory, thoracic and mediastinal disorders: 4 (5.6) n (%)
  SAE class: Vascular disorders: 1 (1.4) n (%)
  SAE: Abdominal pain: 1 (1.4) n (%)
  SAE: Anaemia: 2 (2.8) n (%)
  SAE: Asthenia: 1 (1.4) n (%)
  SAE: Basal cell carcinoma: 1 (1.4) n (%)
  SAE: Bone pain: 1 (1.4) n (%)
  SAE: Deep-vein thrombosis: 1 (1.4) n (%)
  SAE: Dehydration: 1 (1.4) n (%)
  SAE: Disease progression: 6 (8.3) n (%)
  SAE: Dyspnoea: 3 (4.2) n (%)
  SAE: Gastric haemorrhage: 1 (1.4) n (%)
  SAE: Gastric ulcer helicobacter: 1 (1.4) n (%)
  SAE: Infection: 1 (1.4) n (%)
  SAE: Lower respiratory tract infection: 1 (1.4) n (%)
  SAE: Mastoiditis: 1 (1.4) n (%)
  SAE: Mental impairment: 2 (2.8) n (%)
  SAE: Metastases to the central nervous system: 2 (2.8) n (%)
  SAE: Pericardial effusion: 1 (1.4) n (%)
  SAE: Pleural effusion: 1 (1.4) n (%)
  SAE: Pneumonia: 1 (1.4) n (%)
  SAE: Portal vein thrombosis: 1 (1.4) n (%)
  SAE: Seizure: 2 (2.8) n (%)
  SAE: Subarachnoid haemorrhage: 1 (1.4) n (%)
  Total number of TEAEs: 621
  Total number of treatment-emergent SAEs: 49
  Patients with any AE leading to death: 6 (8.3) Number (%)
RP2D 40 mg Q8h
  Most common grade 3–4 TEAEs, patients: 3.2–6.5%
Every 8 hours (Q8h, TID), IR
  Recommended phase 2 dose (RP2D): 40 mg
Safety population
  Grade 3 TEAEs, patients: 51.4%
  Grade 4 TEAE of anaemia: One patient
  SAE disease progression, patients: 8.3%
  Study drug-related SAE, patients: 1.4%
  Study drug-related TEAEs, patients: 55.6%
  TEAEs leading to study drug discontinuation, patients: 15.3%
  TEAEs of grade 1 severity: 64 % of events
  Treatment-emergent SAEs, patients: 38.9%
Safety population (N = 72)
  Patients with ≥ 1 TEAE: 97.2%
[1]
  TEAE QTc prolongation, patients: 18.1%
  TEAE anaemia, patients: 15.3%
  TEAE asthenia, patients: 15.3%
  TEAE class gastrointestinal disorders, patients: 61.1%
  TEAE class general disorders and administration-site conditions, patients: 50.0%
  TEAE constipation, patients: 19.4%
  TEAE decreased appetite, patients: 15.3%
  TEAE diarrhoea, patients: 18.1%
  TEAE fatigue, patients: 19.4%
  TEAE headache, patients: 15.3%
  TEAE vomiting, patients: 18.1%
